Laboratory results from patent publication US8846928B2 (Portola Pharmaceuticals, Inc., priority 2010, dated 2014).

Biological target: T1, full length active recombinant SYK enzyme (Homo sapiens, UniProt P43405)
T1 construct: full length active recombinant SYK enzyme (Millipore, Calif.); purchased Millipore
Assay: Inhibition of Syk tyrosine phosphorylation activity (LANCE TR-FRET kinase assay)
Format: biochemical
Method: Inhibition of Syk Tyrosine Phosphorylation Activity
Potency of candidate molecules for inhibiting Syk tyrosine phosphorylation activity is assessed by measuring the ability of a test compound to inhibit Syk-mediated tyrosine phosphorylation of a Syk-specific substrate.
SYK tyrosine phosphorylation activity is measured using the LANCE™ Technology developed by Perkin Elmer Life and Analytical Sciences (Boston, Mass.). LANCE™ refers to homogeneous time resolved fluorometry applications using techniques such as time-resolved fluorescence resonance energy transfer assay (TR-FRET) (see generally for procedures in Perkin Elmer Application Note—How to Optimize a Tyrosine Kinase Assay Using Time Resolved Fluorescence-Based LANCE Detection, wwww.perkinelmer.com/lifesciences). The assay principle involves detection of a phosphorylated substrate using energy transfer from a phosphospecific europium-labeled antibody to streptavidin-allophycocyanin as an acceptor.
To test the ability of candidate molecules to inhibit SYK tyrosine phosphorylation activity, molecules are reconstituted in 30% DMSO and serially diluted 1:3 with the final dilution containing DMSO in the absence of the candidate molecule. The final DMSO concentration in the assay is 3%. Kinase assays are performed as a two part reaction. […] The second reaction involves termination of the kinase reaction and the simultaneous addition of the detection reagents—europium-labeled anti-phosphotyrosine reagent (Eu-W1024-PY100, Perkin Elmer, Boston, Mass.) and Streptavidin-Allophycocyanin detection reagent (SA-APC, Prozyme, Calif.). The kinase reaction is performed in a black U-bottom 96-well microtitre plate. The final reaction volume is 50 μL and contains a final concentration of 1 nM active SYK enzyme, 550 nM SYK-substrate, and 100 μM ATP diluted in a buffer containing 50 mM Tris pH 7.5, 5 mM MgCl2, and 1 mM DTT. The reaction is allowed to proceed for 1 hour at room temperature. The quench buffer contains 100 mM Tris pH 7.5, 300 mM NaCl2, 20 mM EDTA, 0.02% Brij35, and 0.5% BSA. The detection reagents are added to the reaction mixture at the following dilutions-1:500 for Eu-W1024-PY100 and 1:250 for SA-APC. The kinase reaction is terminated by the addition of 50 μL quench buffer containing the detection reagents. The detection is allowed to proceed for 1 hr at room temperature. Detection of the phosphorylated substrate in the absence and presence of inhibitors is measured in the TR-FRET instrument, Analyst HT (Molecular Probes, Sunnyvale, Calif.) and the condition for measurements are set up using CriterionHost Release 2.0 (Molecular Probes, Sunnyvale, Calif.). The settings used are a follows: excitation 360 nm, emission 665-7.5 nm, beam splitter 350 nm 50/50, flash 100 pulses, delay 60 us, integration 400 us, z-height 2 mm. […] IC50s were derived by non-linear regression analysis. […]

IC50 [nM] | Compound
10 to 100 | NC(=O)c1ccc(N[C@@H]2CCCC[C@@H]2N)nc1Nc1ccc(-n2cccn2)cc1 (relative stereo) [Example 140, 6-(cis-2-aminocyclohexylamino)-2-(4-(1H-pyrazol-1-yl)phenylamino)nicotinamide]
1 to 10 | NC(=O)c1ccc(N[C@@H]2CCCC[C@@H]2N)nc1Nc1ccc2[nH]ncc2c1 (relative stereo) [Example 141, 6-(cis-2-aminocyclohexylamino)-2-(1H-indazol-5-ylamino)nicotinamide]
> 1000 | Cc1cccc(Nc2cc(N[C@@H]3CCCC[C@@H]3N)ncc2C(N)=O)c1 (relative stereo) [Example 142, 6-(cis-2-aminocyclohexylamino)-4-(3-toluidino)nicotinamide]
> 1000 | Cc1cccc(Nc2cc(N[C@@H]3CCCC[C@@H]3N)ccc2C(N)=O)c1 [Example 1, 4-((1R,2S)-2-aminocyclohexylamino)-2-(m-tolylamino)benzamide]
100 to 1000 | Cn1ccc2c(Nc3cc(N[C@@H]4CCCC[C@@H]4N)ccc3C(N)=O)cccc21 [Example 2, 4-((1R,2S)-2-aminocyclohexylamino)-2-(1-methyl-1H-indol-4-ylamino)benzamide]
> 1000 | NC(=O)c1ccc(N[C@@H]2CCCC[C@@H]2N)cc1Nc1ccc(F)cc1 [Example 3, 4-((1R,2S)-2-aminocyclohexylamino)-2-(4-fluorophenylamino)benzamide]
100 to 1000 | Cc1cc(C)cc(Nc2cc(N[C@@H]3CCCC[C@@H]3N)ccc2C(N)=O)c1 [Example 4, 4-((1R,2S)-2-aminocyclohexylamino)-2-(3,5-dimethylphenylamino)benzamide]
100 to 1000 | NC(=O)c1ccc(N[C@@H]2CCCC[C@@H]2N)cc1Nc1cccc(-n2nccn2)c1 [Example 5]
10 to 100 | Cc1cc(Nc2cc(N[C@@H]3CCCC[C@@H]3N)ccc2C(N)=O)sn1 [Example 6, 4-((1R,2S)-2-aminocyclohexylamino)-2-(3-methylisothiazol-5-ylamino)benzamide]
10 to 100 | NC(=O)c1ccc(N[C@@H]2CCCC[C@@H]2N)cc1Nc1cc(-c2ccccc2)no1 [Example 7, 4-((1R,2S)-2-aminocyclohexylamino)-2-(3-phenylisoxazol-5-ylamino)benzamide]
> 1000 | Cn1cc(Nc2cc(N[C@@H]3CCCC[C@@H]3N)ccc2C(N)=O)cn1 [Example 8, 4-((1R,2S)-2-aminocyclohexylamino)-2-(1-methyl-1H-pyrazol-4-ylamino)benzamide]
10 to 100 | Cc1cc(Nc2cc(N[C@H](CC(C)C)C(N)=O)ccc2C(N)=O)sn1 [Example 9, (R)-4-(1-amino-4-methyl-1-oxopentan-2-ylamino)-2-(3-methylisothiazol-5-ylamino)benzamide]
100 to 1000 | Cc1cc(Nc2cc(N[C@H](C)C(N)=O)ccc2C(N)=O)sn1 [Example 10, (R)-4-(1-amino-1-oxopropan-2-ylamino)-2-(3-methylisothiazol-5-ylamino)benzamide]
100 to 1000 | Cc1cc(Nc2cc(N[C@@H](C(N)=O)C(C)C)ccc2C(N)=O)sn1 [Example 11, (R)-4-(1-amino-3-methyl-1-oxobutan-2-ylamino)-2-(3-methylisothiazol-5-ylamino)benzamide]
100 to 1000 | Cc1cc(Nc2cc(N[C@H](CC(C)C)C(N)=O)ccc2C(N)=O)no1 [Example 12, (R)-4-(1-amino-4-methyl-1-oxopentan-2-ylamino)-2-(5-methylisoxazol-3-ylamino)benzamide]
100 to 1000 | Cc1cc(Nc2cc(N[C@H](CC(C)C)C(N)=O)ccc2C(N)=O)on1 [Example 13, (R)-4-(1-amino-4-methyl-1-oxopentan-2-ylamino)-2-(3-methylisoxazol-5-ylamino)benzamide]
10 to 100 | Cc1cc(Nc2cc(N[C@H](Cc3ccccc3)C(N)=O)ccc2C(N)=O)sn1 [Example 14, (R)-4-(1-amino-1-oxo-3-phenylpropan-2-ylamino)-2-(3-methylisothiazol-5-ylamino)benzamide]

IC50 [nM] | Compound
100 to 1000 | Cc1cc(Nc2cc(N[C@H](COCc3ccccc3)C(N)=O)ccc2C(N)=O)sn1 [Example 15, (R)-4-(1-amino-3-(benzyloxy)-1-oxopropan-2-ylamino)-2-(3-methylisothiazol-5-ylamino)benzamide]
100 to 1000 | Cc1cc(Nc2cc(N[C@H](CO)C(N)=O)ccc2C(N)=O)sn1 [Example 16, (R)-4-(1-amino-3-hydroxy-1-oxopropan-2-ylamino)-2-(3-methylisothiazol-5-ylamino)benzamide]
10 to 100 | Cc1cc(Nc2cc(N[C@H](CC3CCCCC3)C(N)=O)ccc2C(N)=O)sn1 [Example 17, (R)-4-(1-amino-3-cyclohexyl-1-oxopropan-2-ylamino)-2-(3-methylisothiazol-5-ylamino)benzamide]
100 to 1000 | Cc1cc(Nc2cc(N[C@@H](C(N)=O)c3ccccc3)ccc2C(N)=O)sn1 [Example 18, (R)-4-(2-amino-2-oxo-1-phenylethylamino)-2-(3-methylisothiazol-5-ylamino)benzamide]
> 1000 | Cc1cc(Nc2cc(N[C@H](CC(C)C)C(N)=O)cc(F)c2C(N)=O)sn1 [Example 19, (R)-4-(1-amino-4-methyl-1-oxopentan-2-ylamino)-2-fluoro-6-(3-methylisothiazol-5-ylamino)benzamide]
10 to 100 | Cc1cc(Nc2cc(N[C@H](CC(C)C)C(N)=O)c(F)cc2C(N)=O)sn1 [Example 20, (R)-4-(1-amino-4-methyl-1-oxopentan-2-ylamino)-5-fluoro-2-(3-methylisothiazol-5-ylamino)benzamide]
10 to 100 | Cc1cc(Nc2cc(N[C@@H]3CCCC[C@@H]3N)c(F)cc2C(N)=O)sn1 [Example 21, 4-((1R,2S)-2-aminocyclohexylamino)-5-fluoro-2-(3-methylisothiazol-5-ylamino)benzamide]
10 to 100 | Cc1cc(Nc2cc(N[C@@H](C(N)=O)C3CCCCC3)ccc2C(N)=O)sn1 [Example 22, (R)-4-(2-amino-1-cyclohexyl-2-oxoethylamino)-2-(3-methylisothiazol-5-ylamino)benzamide]
> 1000 | Cc1cc(Nc2c(C(N)=O)ccc(N[C@H](CC(C)C)C(N)=O)c2F)sn1 [Example 23, (R)-4-(1-amino-4-methyl-1-oxopentan-2-ylamino)-3-fluoro-2-(3-methylisothiazol-5-ylamino)benzamide]
1 to 10 | Cc1cc(Nc2cc(N[C@H](Cc3ccccc3)C(N)=O)c(F)cc2C(N)=O)sn1 [Example 24, (R)-4-(1-amino-1-oxo-3-phenylpropan-2-ylamino)-5-fluoro-2-(3-methylisothiazol-5-ylamino)benzamide]
10 to 100 | Cc1cc(Nc2cc(N[C@H](CC3CC3)C(N)=O)c(F)cc2C(N)=O)sn1 [Example 25, (R)-4-(1-amino-3-cyclopropyl-1-oxopropan-2-ylamino)-5-fluoro-2-(3-methylisothiazol-5-ylamino)benzamide]
10 to 100 | CC[C@@H](Nc1cc(Nc2cc(C)ns2)c(C(N)=O)cc1F)C(N)=O [Example 26, (R)-4-(1-amino-1-oxobutan-2-ylamino)-5-fluoro-2-(3-methylisothiazol-5-ylamino)benzamide]
10 to 100 | Cc1cc(Nc2cc(N[C@H](Cc3ccc(F)cc3)C(N)=O)c(F)cc2C(N)=O)sn1 [Example 27, (R)-4-(1-amino-3-(4-fluorophenyl)-1-oxopropan-2-ylamino)-5-fluoro-2-(3-methylisothiazol-5-ylamino)benzamide]
100 to 1000 | Cc1cc(Nc2cc(N[C@H](Cc3ccc(O)cc3)C(N)=O)c(F)cc2C(N)=O)sn1 [Example 28, (R)-4-(1-amino-3-(4-hydroxyphenyl)-1-oxopropan-2-ylamino)-5-fluoro-2-(3-methylisothiazol-5-ylamino)benzamide]
100 to 1000 | COC[C@H](N)CNc1ccc(C(N)=O)c(Nc2cc(C)ns2)c1 [Example 29, (R)-4-(2-amino-3-methoxypropylamino)-2-(3-methylisothiazol-5-ylamino)benzamide]
100 to 1000 | CC[C@H](N)CNc1ccc(C(N)=O)c(Nc2cc(C)ns2)c1 [Example 30, (S)-4-(2-aminobutylamino)-2-(3-methylisothiazol-5-ylamino)benzamide]
10 to 100 | Cc1cc(Nc2cc(NC[C@H](C)N)ccc2C(N)=O)sn1 [Example 31, (S)-4-(2-aminopropylamino)-2-(3-methylisothiazol-5-ylamino)benzamide]
